This note sets out measurements from patent US7491827B2, “Aryl sulfonamides useful as inhibitors of chemokine receptor activity” (Millennium Pharmaceuticals, Inc., priority 2003, dated 2009).

T1 sequence (P51685 whole entry): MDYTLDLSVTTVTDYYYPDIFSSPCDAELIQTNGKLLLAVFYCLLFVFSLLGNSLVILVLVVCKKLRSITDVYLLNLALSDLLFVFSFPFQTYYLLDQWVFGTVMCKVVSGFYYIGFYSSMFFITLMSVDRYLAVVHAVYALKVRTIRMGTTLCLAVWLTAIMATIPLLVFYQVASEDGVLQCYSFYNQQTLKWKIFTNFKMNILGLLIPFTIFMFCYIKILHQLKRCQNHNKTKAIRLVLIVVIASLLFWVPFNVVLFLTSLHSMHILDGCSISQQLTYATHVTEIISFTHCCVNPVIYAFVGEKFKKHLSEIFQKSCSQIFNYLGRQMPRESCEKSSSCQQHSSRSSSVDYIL

The first assay addresses T1, cloned human CCR8 receptor stably expressed in L1.2 cells (Homo sapiens, UniProt P51685).
T1 construct: expressed in transfected cells
The assay can be described thus: whole cell binding screen: inhibition of biotinylated human I309 binding to CCR8 (FMAT 8100 HTS). As to conditions: Ki of compounds to inhibit I-309 binding to CCR8, L1.2/hCCR8 cells, biotinylated human I-309, 10 point concentration response starting at 10 μM. The method in brief: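 Ten-point dilutions, top 10 μM final, were tested for displacing biotin-I309 from hCCR8-transfected L1.2 cells in HEPES-buffered HBSS with BSA and sodium azide, mixing 0.5 h before FMAT 8100 detection. Signals converted to percent inhibition against untreated wells and a 100 nM excess unlabeled I309 control.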
In the case of `CCOC(=O)N1CCC(NS(=O)(=O)c2ccc(NC(=O)c3ccccc3)c3ccccc23)CC1` [Compound A-34, 4-(4-Benzoylamino-naphthalene-1-sulfonylamino)-piperidine-1-carboxylic acid ethyl ester], the Ki is < 30000 nM.
Same read-out and setting: as for `CCOC(=O)N1CCC(NS(=O)(=O)c2ccc(NC(=O)c3ccccc3C)c3ccccc23)CC1` [Compound A-40, 4-[4-(2-Methyl-benzoylamino)-naphthalene-1-sulfonylamino]-piperidine-1-carboxylic acid ethyl ester], the figure is < 500 nM; as for `CCOC(=O)N1CCC(NS(=O)(=O)c2ccc(NC(=O)N3CCCCC3)c3ccccc23)CC1` [Compound B-14, 4-{4-[(Piperidine-1-carbonyl)-amino]-naphthalene-1-sulfonylamino}-piperidine-1-carboxylic acid ethyl ester], < 500 nM.

The same assay, now with this note: L1.2/hCCR8 cells, biotinylated human I-309, 10 point concentration response starting at 10 μM; read-out: Ki of compounds to inhibit I-309 binding to CCR8.
In the case of `O=C(Nc1ccc(S(=O)(=O)NC2CCN(Cc3ccccc3)CC2)c2ccccc12)c1ccccc1` [Compound A-25, N-[4-(1-Benzyl-piperidin-4-ylsulfamoyl)-naphthalen-1-yl]-benzamide], the Ki was < 500 nM.
The same measure, in the same setting: as for `CCc1ccc(NS(=O)(=O)c2ccc(NC(=O)c3ccccc3)c3ccccc23)cc1` [Compound A-26, N-[4-(4-Ethyl-phenylsulfamoyl)-naphthalen-1-yl]-benzamide], the figure is < 500 nM.
Same read-out and setting: as for `CC(C)c1ccc(NS(=O)(=O)c2ccc(NC(=O)c3ccccc3)c3ccccc23)cc1` [Compound A-28, N-[4-(4-Isopropyl-phenylsulfamoyl)-naphthalene-1-yl]-benzamide], the figure is < 500 nM; as for `O=C(Nc1ccc(S(=O)(=O)Nc2ccc(-c3ccccc3)cc2)c2ccccc12)c1ccccc1` [Compound A-29], < 30000 nM; as for `O=C(Nc1ccc(S(=O)(=O)Nc2ccc(C(F)(F)F)cc2)c2ccccc12)c1ccccc1` [Compound A-30, N-[4-(4-Trifluoromethyl-phenylsulfamoyl)-naphthalen-1-yl]-benzamide], < 30000 nM.
Same read-out and setting: under `O=C(Nc1ccc(S(=O)(=O)NC2CCCC2)c2ccccc12)c1ccccc1` [Compound A-35, N-(4-Cyclopentysulfamoyl-naphthalen-1-yl)-benzamide] stands < 500 nM.
In the case of `CC(C)(C)OC(=O)N1CCC(NS(=O)(=O)c2ccc(NC(=O)c3ccccc3)c3ccccc23)C1` (stereo not drawn) [Compound A-37, 3-(4-Benzoylamino-naphthalene-1-sulfonylamino)-pyrrolidine-1-carboxylic acid tert-butyl ester], the Ki is < 500 nM.
With `CCOC(=O)N1CCC(NS(=O)(=O)c2ccc(NC(=O)c3ccccc3Cl)c3ccccc23)CC1` [Compound A-43, 4-[4-(2-Chloro-benzoylamino)-naphthalene-1-sulfonylamino]-piperidine-1-carboxylic acid ethyl ester], the Ki is < 500 nM.
Same read-out and setting: under `Cc1ccccc1C(=O)Nc1ccc(S(=O)(=O)N[C@@H]2[C@H](C)CN(Cc3ccccc3)C[C@@H]2C)c2ccccc12` [Compound A-46, (±)-(cis, cis)-N-[4-(1-Benzyl-3,5-dimethyl-piperidin-4-ylsulfamoyl)-naphthalen-1-yl]-2-methyl-benzamide] stands < 30000 nM.
The same measure, in the same setting: as for `COc1ccc(NS(=O)(=O)c2ccc(NC(=O)c3ccc(OC)cc3)c3ccccc23)cc1` [Compound B-2, 4-Methoxy-N-[4-(4-methoxy-phenylsulfamoyl)-naphthalen-1-yl]-benzamide], the figure is < 500 nM.
On the same count and under the same terms, under `COc1ccc(NS(=O)(=O)c2ccc(NC(=O)c3ccc([N+](=O)[O-])cc3)c3ccccc23)cc1` [Compound B-3, N-[4-(4-Methoxy-phenylsulfamoyl)-naphthalen-1-yl]-4-nitro-benzamide] stands < 30000 nM; under `COc1ccc(NS(=O)(=O)c2ccc(NC(=O)C3CCCCC3)c3ccccc23)cc1` [Compound B-4, Cyclohexanecarboxylic acid [4-(4-methoxy-phenylsulfamoyl)-naphthalen-1-yl]-amide], < 500 nM; under `COc1ccc(NS(=O)(=O)c2ccc(NC(=O)c3cccc(OC)c3)c3ccccc23)cc1` [Compound B-5, 3-Methoxy-N-[4-(4-methoxy-phenylsulfamoyl)-naphthalen-1-yl]-benzamide], < 1000 nM.
`COc1ccc(NS(=O)(=O)c2ccc(NC(=O)c3ccccc3OC)c3ccccc23)cc1` [Compound B-6, 2-Methoxy-N-[4-(4-methoxy-phenylsulfamoyl)-naphthalen-1-yl]-benzamide]: the Ki was < 30000 nM.
With `COc1ccc(NS(=O)(=O)c2ccc(NC(=O)Cc3ccccc3)c3ccccc23)cc1` [Compound B-7, N-[4-(4-Methoxy-phenylsulfamoyl)-naphthalen-1-yl]-2-phenyl-acetamide], the Ki was < 500 nM.
Still for that read-out and setting: under `COc1ccc(NS(=O)(=O)c2ccc(NC(=O)c3ccncc3)c3ccccc23)cc1` [Compound B-8, N-[4-(4-Methoxy-phenylsulfamoyl)-naphthalen-1-yl]-isonicotinamide] stands < 1000 nM; under `COc1ccc(NS(=O)(=O)c2ccc(NC(=S)Nc3ccccc3)c3ccccc23)cc1` [Compound B-9, 4-(3-Phenyl-thioureido)-naphthalene-1-sulfonic acid (4-methoxy-phenyl)-amide], < 30000 nM; under `COc1ccc(NS(=O)(=O)c2ccc(NC(=O)Nc3ccccc3)c3ccccc23)cc1` [Compound B-10, 4-(3-Phenyl-ureido)-naphthalene-1-sulfonic acid (4-methoxy-phenyl)-amide], < 30000 nM.
Consider `COc1ccc(NS(=O)(=O)c2ccc(NC(=O)c3ccccc3C)c3ccccc23)cc1` [Compound B-11, N-[4-(4-Methoxy-phenylsulfamoyl)-naphthalen-1-yl]-2-methyl-benzamide], for which the Ki is < 500 nM.
For `CCOC(=O)N1CCC(NS(=O)(=O)c2ccc(NC(=O)C3CCCCC3)c3ccccc23)CC1` [Compound B-12, 4-[4-(Cyclohexanecarbonyl-amino)-naphthalene-1-sulfonylamino]-piperidine-1-carboxylic acid ethyl ester], the Ki was < 500 nM.
In the case of `CCOC(=O)N1CCC(NS(=O)(=O)c2ccc(NC(=O)c3cccc(C)c3)c3ccccc23)CC1` [Compound B-13, 4-[4-(3-Methyl-benzoylamino)-naphthalene-1-sulfonylamino]-piperidine-1-carboxylic acid ethyl ester], the Ki is < 1000 nM.
Still for that read-out and setting: as for `CC(C)(C)OC(=O)N1CCC(NS(=O)(=O)c2ccc(NC(=O)c3ccccc3F)c3ccccc23)CC1` [Compound B-15, 4-[4-(2-Fluoro-benzoylamino)-naphthalene-1-sulfonylamino]-piperidine-1-carboxylic acid tert-butyl ester], the figure is < 500 nM; as for `CC(C)(C)OC(=O)N1CCC(NS(=O)(=O)c2ccc(NC(=O)C3CCCC3)c3ccccc23)CC1` [Compound B-16, 4-[4-(Cyclopentanecarbonyl-amino)-naphthalene-1-sulfonylamino]-piperidine-1-carboxylic acid tert-butyl ester], < 1000 nM; as for `CC(C)(C)OC(=O)N1CCC(NS(=O)(=O)c2ccc(NC(=O)C3CC3)c3ccccc23)CC1` [Compound B-17, 4-[4-(Cyclopropanecarbonyl-amino)-naphthalene-1-sulfonylamino]-piperidine-1-carboxylic acid tert-butyl ester], < 30000 nM.
Regarding `CC(C)(C)OC(=O)N1CCC(NS(=O)(=O)c2ccc(NC(=O)C3CCC3)c3ccccc23)CC1` [Compound B-18, 4-[4-(Cyclobutanecarbonyl-amino)-naphthalene-1-sulfonylamino]-piperidine-1-carboxylic acid tert-butyl ester], the Ki was < 30000 nM.
On the same count and under the same terms, under `CC(C)(C)OC(=O)N1CCC(NS(=O)(=O)c2ccc(NC(=O)C3CCCCC3)c3ccccc23)CC1` [Compound B-19, 4-[4-(Cyclohexanecarbonyl-amno)-naphthalene-1-sulfonylamino]-piperidine-1-carboxylic acid tert-butyl ester] stands < 500 nM; under `CC(C)(C)OC(=O)N1CCC(NS(=O)(=O)c2ccc(NC(=O)c3cccnc3)c3ccccc23)CC1` [Compound B-20, 4-{4-[(Pyridine-3-carbonyl)-amino]-naphthalene-1-sulfonylamino}-piperidine-1-carboxylic acid tert-butyl ester], < 1000 nM.
The same measure, in the same setting: under `CN1CCC(C(=O)Nc2ccc(S(=O)(=O)NC3CCN(C(=O)OC(C)(C)C)CC3)c3ccccc23)CC1` [Compound B-21, 4-{4-[(1-Methyl-piperidine-4-carbonyl)-amino]-naphthalene-1-sulfonylamino}-piperidine-1-carboxylic acid tert-butyl ester] stands < 30000 nM.
The same measure, in the same setting: under `CC(C)(C)OC(=O)N1CCC(NS(=O)(=O)c2ccc(NC(=O)c3ccncc3)c3ccccc23)CC1` [Compound B-22, 4-{4-[(Pyridine-4-carbonyl)-amino]-naphthalene-1-sulfonylamino}-piperidine-1-carboxylic acid tert-butyl ester] stands < 30000 nM; under `CN1CCCC(C(=O)Nc2ccc(S(=O)(=O)NC3CCN(C(=O)OC(C)(C)C)CC3)c3ccccc23)C1` (stereo not drawn) [Compound B-23], < 30000 nM.
Take `CCOC(=O)N1CCC(NS(=O)(=O)c2ccc(NC(=O)c3cccnc3C)c3ccccc23)CC1` [Compound B-24]: the Ki is < 500 nM.
On the same count and under the same terms, under `CCOC(=O)N1CCC(NS(=O)(=O)c2ccc(NC(=O)c3ccccc3C#N)c3ccccc23)CC1` [Compound B-26, 4-[4-(2-Cyano-benzoylamino)-naphthalene-1-sulfonylamino]-piperidine-1-carboxylic acid ethyl ester] stands < 500 nM; under `CCOC(=O)N1CCC(NS(=O)(=O)c2ccc(NC(=O)c3cccc(C)c3C)c3ccccc23)CC1` [Compound B-27], < 500 nM.
